Assays:
[1] = The drug is tested on Bifidobacterium longum subsp. Infantis strain: CCUG52486 for biotransformation. The drug concentrations were measured before and after a 12-h incubation by liquid-chromatography-coupled mass spectrometry (LC–MS); details: 2 µM
[2] = The drug is tested on Escherichia coli strain: BW25113 for biotransformation. The drug concentrations were measured before and after a 12-h incubation by liquid-chromatography-coupled mass spectrometry (LC–MS); details: 2 µM
[3] = The drug is tested on Eubacterium rectale strain: ATCC33656 for biotransformation. The drug concentrations were measured before and after a 12-h incubation by liquid-chromatography-coupled mass spectrometry (LC–MS); details: agathobacter rectalis, 2 µM
[4] = The drug is tested on Clostridium sporogenes strain: ATCC15579 for biotransformation. The drug concentrations were measured before and after a 12-h incubation by liquid-chromatography-coupled mass spectrometry (LC–MS); details: 2 µM
[5] = The drug is tested on Collinsella intestinalis strain: DSM13280 for biotransformation. The drug concentrations were measured before and after a 12-h incubation by liquid-chromatography-coupled mass spectrometry (LC–MS); details: 2 µM
[6] = bacteroides thetaiotaomicron, 12 h, 2 µM
Description: The drug is tested on Bacteroides thetaiotaomicron strain: 7330 for biotransformation. The drug concentrations were measured before and after a 12-h incubation by liquid-chromatography-coupled mass spectrometry (LC–MS)

[7] = The drug is tested on Bifidobacterium ruminantium strain: fecal isolate for biotransformation. The drug concentrations were measured before and after a 12-h incubation by liquid-chromatography-coupled mass spectrometry (LC–MS); details: 2 µM
[8] = The drug is tested on Bacteroides fragilis strain: ATCC43859 for biotransformation. The drug concentrations were measured before and after a 12-h incubation by liquid-chromatography-coupled mass spectrometry (LC–MS); details: 2 µM
[9] = segatella copri, 12 h, 2 µM
Description: The drug is tested on Prevotella copri strain: DSM18205 for biotransformation. The drug concentrations were measured before and after a 12-h incubation by liquid-chromatography-coupled mass spectrometry (LC–MS)

[10] = The drug is tested on Bacteroides dorei strain: DSM17855 for biotransformation. The drug concentrations were measured before and after a 12-h incubation by liquid-chromatography-coupled mass spectrometry (LC–MS); details: phocaeicola dorei, 2 µM
[11] = The drug is tested on Clostridium ramosum strain: DSM1402 for biotransformation. The drug concentrations were measured before and after a 12-h incubation by liquid-chromatography-coupled mass spectrometry (LC–MS); details: thomasclavelia ramosa, 2 µM
[12] = The drug is tested on Collinsella aerofaciens strain: ATCC25986 for biotransformation. The drug concentrations were measured before and after a 12-h incubation by liquid-chromatography-coupled mass spectrometry (LC–MS); details: 2 µM
[13] = The drug is tested on Clostridium sp. strain: fecal isolate for biotransformation. The drug concentrations were measured before and after a 12-h incubation by liquid-chromatography-coupled mass spectrometry (LC–MS); details: 2 µM
[14] = bacteroides intestinalis, 12 h, 2 µM
Description: The drug is tested on Bacteroides intestinalis strain: DSM17393 for biotransformation. The drug concentrations were measured before and after a 12-h incubation by liquid-chromatography-coupled mass spectrometry (LC–MS)

[15] = The drug is tested on Clostridium asparagiforme strain: DSM15981 for biotransformation. The drug concentrations were measured before and after a 12-h incubation by liquid-chromatography-coupled mass spectrometry (LC–MS); assay type: ADME; set-up: dose 2 uM, timepoint 0 vs 12 hours; details: enterocloster asparagiformis, 2 µM
[16] = bacteroides eggerthii, 12 h, 2 µM
Description: The drug is tested on Bacteroides eggerthii strain: DSM20697 for biotransformation. The drug concentrations were measured before and after a 12-h incubation by liquid-chromatography-coupled mass spectrometry (LC–MS)

[17] = The drug is tested on Coprococcus comes strain: ATCC27758 for biotransformation. The drug concentrations were measured before and after a 12-h incubation by liquid-chromatography-coupled mass spectrometry (LC–MS); assay type: ADME; set-up: dose 2 uM, timepoint 0 vs 12 hours; details: 2 µM
[18] = roseburia intestinalis, 12 h, 2 µM
Description: The drug is tested on Roseburia intestinalis strain: L1-82 for biotransformation. The drug concentrations were measured before and after a 12-h incubation by liquid-chromatography-coupled mass spectrometry (LC–MS)

[19] = The drug is tested on Bacteroides pectinophilus strain: ATCC43243 for biotransformation. The drug concentrations were measured before and after a 12-h incubation by liquid-chromatography-coupled mass spectrometry (LC–MS); details: 2 µM
[20] = The drug is tested on Providencia stuartii strain: ATCC25827 for biotransformation. The drug concentrations were measured before and after a 12-h incubation by liquid-chromatography-coupled mass spectrometry (LC–MS); details: 2 µM

Compound | Bacterial Biotransformation [1] | Bacterial Biotransformation [2] | Bacterial Biotransformation [3] | Bacterial Biotransformation [4] | Bacterial Biotransformation [5] | Bacterial Biotransformation [6] | Bacterial Biotransformation [7] | Bacterial Biotransformation [8] | Bacterial Biotransformation [9] | Bacterial Biotransformation [10] | Bacterial Biotransformation [11] | Bacterial Biotransformation [12] | Bacterial Biotransformation [13] | Bacterial Biotransformation [14] | Bacterial Biotransformation [15] | Bacterial Biotransformation [16] | Bacterial Biotransformation [17] | Bacterial Biotransformation [18] | Bacterial Biotransformation [19] | Bacterial Biotransformation [20]
C#C[C@]1(OC(C)=O)CC[C@H]2[C@@H]3CCC4=CC(=O)CC[C@@H]4[C@H]3CC[C@@]21C [NORETHINDRONE ACETATE] | Compound NOT metabolized | Compound metabolized | Compound metabolized | Compound metabolized | Compound metabolized | Compound metabolized | Compound NOT metabolized | Compound metabolized | Compound metabolized | Compound metabolized | Compound NOT metabolized | Compound metabolized | Compound metabolized | Compound metabolized | Compound metabolized | Compound metabolized | Compound NOT metabolized | – | – | –
C#C[C@]1(OC(C)=O)CC[C@H]2[C@@H]3CCC4=C/C(=N/O)CC[C@@H]4[C@H]3CC[C@@]21CC [NORGESTIMATE] | Compound NOT metabolized | Compound NOT metabolized | Compound metabolized | – | Compound NOT metabolized | Compound NOT metabolized | Compound NOT metabolized | Compound NOT metabolized | Compound NOT metabolized | Compound metabolized | Compound NOT metabolized | Compound NOT metabolized | Compound metabolized | Compound NOT metabolized | Compound NOT metabolized | Compound NOT metabolized | Compound NOT metabolized | Compound NOT metabolized | Compound NOT metabolized | Compound NOT metabolized
CC(=O)O[C@]1(C(C)=O)CC[C@H]2[C@@H]3C=C(C)C4=CC(=O)CC[C@]4(C)[C@H]3CC[C@@]21C [MEGESTROL ACETATE] | Compound NOT metabolized | Compound metabolized | Compound NOT metabolized | – | Compound NOT metabolized | Compound metabolized | Compound metabolized | Compound metabolized | Compound NOT metabolized | Compound metabolized | Compound NOT metabolized | Compound metabolized | Compound metabolized | Compound metabolized | Compound NOT metabolized | Compound metabolized | Compound NOT metabolized | Compound NOT metabolized | Compound NOT metabolized | Compound metabolized
COCCc1ccc(OCC(O)CNC(C)C)cc1.COCCc1ccc(OCC(O)CNC(C)C)cc1.O=C(O)C(O)C(O)C(=O)O (centres undefined) [METOPROLOL TARTRATE] | Compound NOT metabolized | Compound NOT metabolized | Compound NOT metabolized | Compound NOT metabolized | Compound NOT metabolized | – | Compound metabolized | Compound metabolized | – | Compound NOT metabolized | Compound NOT metabolized | Compound NOT metabolized | Compound NOT metabolized | Compound NOT metabolized | Compound NOT metabolized | Compound NOT metabolized | Compound NOT metabolized | Compound NOT metabolized | Compound NOT metabolized | Compound NOT metabolized
C#C[C@]1(O)CC[C@H]2[C@@H]3CCC4=CC(=O)CC[C@@H]4[C@H]3CC[C@@]21CC [LEVONORGESTREL] | – | Compound NOT metabolized | Compound NOT metabolized | Compound metabolized | Compound NOT metabolized | Compound metabolized | Compound NOT metabolized | Compound metabolized | Compound NOT metabolized | Compound metabolized | Compound NOT metabolized | Compound NOT metabolized | Compound metabolized | Compound NOT metabolized | Compound NOT metabolized | Compound NOT metabolized | Compound NOT metabolized | – | Compound NOT metabolized | Compound NOT metabolized
CNCC[C@H](Oc1cccc2ccccc12)c1cccs1 [DULOXETINE] | Compound NOT metabolized | Compound metabolized | Compound NOT metabolized | – | Compound NOT metabolized | – | Compound metabolized | Compound NOT metabolized | Compound metabolized | Compound metabolized | Compound NOT metabolized | Compound metabolized | Compound metabolized | Compound NOT metabolized | Compound NOT metabolized | Compound NOT metabolized | – | Compound NOT metabolized | Compound NOT metabolized | –
CN1CCN(C(=O)O[C@H]2c3nccnc3C(=O)N2c2ccc(Cl)cn2)CC1 [ESZOPICLONE] | Compound metabolized | Compound NOT metabolized | Compound NOT metabolized | Compound NOT metabolized | Compound NOT metabolized | Compound NOT metabolized | Compound NOT metabolized | Compound NOT metabolized | – | Compound NOT metabolized | Compound NOT metabolized | Compound metabolized | Compound metabolized | – | Compound NOT metabolized | Compound NOT metabolized | Compound NOT metabolized | Compound NOT metabolized | Compound NOT metabolized | Compound NOT metabolized
O=c1[nH]c2ccccc2n1CCCN1CCC(n2c(=O)[nH]c3cc(Cl)ccc32)CC1 [DOMPERIDONE] | Compound NOT metabolized | Compound NOT metabolized | Compound NOT metabolized | Compound NOT metabolized | Compound NOT metabolized | Compound NOT metabolized | Compound NOT metabolized | Compound NOT metabolized | Compound NOT metabolized | Compound NOT metabolized | Compound NOT metabolized | Compound NOT metabolized | Compound NOT metabolized | Compound NOT metabolized | Compound NOT metabolized | Compound NOT metabolized | Compound NOT metabolized | Compound NOT metabolized | Compound NOT metabolized | –

— ChEMBL document CHEMBL5303573, “Mapping human microbiome drug metabolism by gut bacteria and their genes” (Nature, 2019)
